Literature values, collected in patent US6337095B1, “Process for the isolation of compound scopoletin useful as nitric oxide synthesis inhibitor” (Council of Scientific and Industrial Research, priority 2000, dated 2002).

Test system: murine macrophages
Details: reported in literature (Planta Medica 65:400-403, 1999)

SMILES: COc1cc2ccc(=O)oc2cc1O [scopoletin, 7-hydroxy-6-methoxy coumarin]
- inhibition of nitric oxide (NO) synthesis: showed inhibition
